Where two headings read alike, the source gives them in different places. A value given as a limit tells only on which side of the number the result lay.

In test [1] the target is Focal Adhesion Kinase (FAK) (Homo sapiens, UniProt Q05397). The experiment in a line: FAK assay system (Focal Adhesion Kinase inhibition). The test is classed as biochemical. The following applies: read-out: FAK IC50.
In test [2] the test system is Mouse mammary carcinoma 4T1 cells. The test is described as follows: Anchorage-independent tumor cell growth assay. The test is classed as cell-based. Here is the method:
Cells are cultured for 2 h and inhibitors are added at various concentrations in a final concentration of 0.1% DMSO. After 48 h, cell growth is assayed with the cell counting kit-8 (Wako Pure Chemical), which uses a water soluble tetrazolium salt WST8. Twenty μL of the reagent is added into each well and cells are further cultured for 2 h. The optical density is measured at 450 nm.

Another test has as its target FAK (Mus musculus, UniProt P34152). The test is described as follows: Phos IC50 (phosphorylation). The format is cell-based.

Chain of FAK (P34152 2-1052): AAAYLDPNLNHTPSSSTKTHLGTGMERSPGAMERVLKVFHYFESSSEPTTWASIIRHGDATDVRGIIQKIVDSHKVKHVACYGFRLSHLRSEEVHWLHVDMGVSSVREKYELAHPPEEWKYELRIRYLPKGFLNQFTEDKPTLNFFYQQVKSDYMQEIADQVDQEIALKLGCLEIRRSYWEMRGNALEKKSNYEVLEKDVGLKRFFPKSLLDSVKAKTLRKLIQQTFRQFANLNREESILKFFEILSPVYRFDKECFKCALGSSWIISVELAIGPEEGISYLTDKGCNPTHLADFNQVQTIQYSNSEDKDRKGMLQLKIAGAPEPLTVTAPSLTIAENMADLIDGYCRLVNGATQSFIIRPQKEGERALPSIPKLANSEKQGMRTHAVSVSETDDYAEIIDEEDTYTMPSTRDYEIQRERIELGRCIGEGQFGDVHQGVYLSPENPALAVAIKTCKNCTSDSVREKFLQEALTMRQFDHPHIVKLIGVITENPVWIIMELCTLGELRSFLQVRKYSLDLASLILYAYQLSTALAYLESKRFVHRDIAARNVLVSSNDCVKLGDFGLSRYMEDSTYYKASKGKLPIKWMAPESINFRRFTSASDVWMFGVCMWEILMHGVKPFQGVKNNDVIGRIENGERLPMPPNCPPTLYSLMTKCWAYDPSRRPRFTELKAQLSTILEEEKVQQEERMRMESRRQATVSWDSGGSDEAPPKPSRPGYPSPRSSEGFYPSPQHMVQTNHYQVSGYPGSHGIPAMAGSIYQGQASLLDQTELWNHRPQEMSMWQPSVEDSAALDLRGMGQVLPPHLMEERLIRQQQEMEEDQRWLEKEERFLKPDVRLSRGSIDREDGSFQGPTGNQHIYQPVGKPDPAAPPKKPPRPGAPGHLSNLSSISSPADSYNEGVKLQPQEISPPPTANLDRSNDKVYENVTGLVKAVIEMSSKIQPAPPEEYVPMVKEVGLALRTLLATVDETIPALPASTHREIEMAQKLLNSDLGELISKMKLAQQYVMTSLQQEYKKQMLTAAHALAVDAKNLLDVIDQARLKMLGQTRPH
Chain of Focal Adhesion Kinase (FAK) (Q05397 384-706): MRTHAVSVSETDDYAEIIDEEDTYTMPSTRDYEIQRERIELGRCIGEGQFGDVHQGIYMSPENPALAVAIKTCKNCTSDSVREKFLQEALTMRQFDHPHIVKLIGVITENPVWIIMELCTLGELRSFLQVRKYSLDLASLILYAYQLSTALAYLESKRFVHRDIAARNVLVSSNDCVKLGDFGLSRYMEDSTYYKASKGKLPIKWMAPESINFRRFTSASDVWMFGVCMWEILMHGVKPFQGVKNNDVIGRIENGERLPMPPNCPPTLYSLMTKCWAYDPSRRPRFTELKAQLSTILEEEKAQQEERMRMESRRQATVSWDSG

In general, IC50 refers to the concentration that inhibits the measured activity by half. For `CCCS(=O)(=O)c1ccccc1Nc1nc(Nc2ccc(N3CCC[C@@H](C(N)=O)C3)cc2OC)ncc1Cl` [Example 26-13], the IC50 in test [1] worked out at 1.6 nM; in test [2] (Mus musculus, 4T1) it was 440 nM; against FAK, 200 nM.
For `COc1cc(N2CCN(C(C)=O)CC2)ccc1Nc1ncc(Cl)c(Nc2ccccc2S(=O)(=O)C2CCCC2)n1` [Example 33-1], in that order: 2.5 nM, 250 nM and 80 nM.
Take `COCC1CCN(c2ccc(Nc3ncc(Cl)c(Nc4ccccc4S(=O)(=O)C(C)C)n3)c(OC)c2)CC1` [Example 28-10]: the IC50 in test [1] came to 20 nM; in test [2], 1850 nM; against FAK, 3000 nM.
Take `CNC(=O)c1cc(N2CCOCC2)ccc1Nc1nc(Nc2ccc(F)cc2OC)ncc1Cl` [Example 16-1]: the IC50 in test [1] was 44 nM; in test [2] (Mus musculus, 4T1) it was 4000 nM; against FAK it was above 10000 nM.
For `COc1cc(F)ccc1Nc1ncc(Cl)c(Nc2ccccc2S(=O)(=O)NCC(C)C)n1` [Example 22-2], in that order: 26 nM, 3000 nM and 1000 nM.
In the same order, the values of `COc1cc(N2CCC(N3CCCC3)CC2)ccc1Nc1ncc(Cl)c(Nc2ccccc2S(=O)(=O)NC(C)C)n1` [Example 19-15] are 3.1 nM, 360 nM and 500 nM.
Regarding `CC(C)S(=O)(=O)c1ccccc1Nc1nc(Nc2cccc3c2OCC3)ncc1Cl` [Example 28-31], the IC50 in test [1] was determined as 7.4 nM; in test [2] (Mus musculus, 4T1), 1060 nM; against FAK, 60 nM.
In the same order, the values of `CNS(=O)(=O)c1ccccc1Nc1nc(Nc2cc(OC)ccc2C)ncc1Br` [Example 3-3] are 9.1 nM, 800 nM and 140 nM.
In the same order, the values of `CNC(=O)c1ccccc1Nc1nc(Nc2ccc(OCCN3CCOCC3)cc2OC)ncc1Cl` [Example 7-4] are 5.2 nM, 290 nM and 1000 nM.
Regarding `CCCS(=O)(=O)c1ccccc1Nc1nc(Nc2ccc(N3CCNC(=O)C3)cc2OC)ncc1Cl` [Example 26-22], the IC50 was below 1 nM in test [1], 280 nM in test [2] and 100 nM on FAK.
Take `CNS(=O)(=O)c1ccccc1Nc1nc(Nc2cc(OC)ccc2OC(C)C)ncc1Br` [Example 3-62]: the IC50 in test [1] is 63 nM; in test [2] (Mus musculus, 4T1), above 10000 nM; on FAK, above 10000 nM.
Turning to `CNS(=O)(=O)c1ccccc1Nc1nc(Nc2cc(OC)ccc2OCCOC)ncc1Br` [Example 3-59], the IC50 in test [1] was 95 nM; in test [2] (Mus musculus, 4T1) it was above 10000 nM; against FAK it was 1200 nM.
Consider `COc1cc(N2CCN(C(C)C)CC2)ccc1Nc1ncc(Cl)c(Nc2ccccc2S(=O)(=O)C(C)C)n1` [Example 28-14], for which the IC50 in test [1] was 3 nM; in test [2] (Mus musculus, 4T1), 1440 nM; on FAK it was 100 nM.
For `CNS(=O)(=O)c1ccccc1Nc1nc(Nc2cccc3c2ccn3CCCN2CCOCC2)ncc1Br` [Example 3-45], the IC50 stood at 0.9 nM in test [1]; 20 nM in test [2] (Mus musculus, 4T1); 20 nM against FAK.
Consider `CCCCCS(=O)(=O)c1ccccc1Nc1nc(Nc2ccc(N3CCOCC3)cc2OC)ncc1Cl` [Example 34-3], for which the IC50 is 33 nM in test [1]; 2250 nM in test [2] (Mus musculus, 4T1); 190 nM against FAK.
For `CNS(=O)(=O)c1ccccc1Nc1nc(Nc2cc(-c3ccccc3)ccc2OC)ncc1Br` [Example 3-9], in that order: 48 nM, 700 nM and 500 nM.
In the case of `CCS(=O)(=O)c1ccccc1Nc1nc(Nc2ccc(N3CCN(C(C)=O)CC3)cc2OC)ncc1Cl` [Example 27-5], the IC50 was 8.2 nM in test [1]; 300 nM in test [2] (Mus musculus, 4T1); 40 nM against FAK.
As to `CCS(=O)(=O)c1ccccc1Nc1nc(Nc2ccc(CN3CCN(C)CC3)cc2OC)ncc1Cl` [Example 27-7], the IC50 in test [1] amounted to 5.5 nM; in test [2] (Mus musculus, 4T1) it was 570 nM; against FAK, 2000 nM.
For the compound `COc1cc(F)ccc1Nc1ncc(Cl)c(Nc2ccccc2S(=O)(=O)NC(C)C)n1` [Example 19-6], the IC50 in test [1] is 5 nM; in test [2] (Mus musculus, 4T1) it was 700 nM; on FAK, 1000 nM.
For `CNC(=O)c1cc(N2CCCC2)ccc1Nc1nc(Nc2ccc(OC3CCN(C)CC3)cc2OC)ncc1Cl` [Example 15-2], in that order: 21 nM, 660 nM and above 10000 nM.
Turning to `CNS(=O)(=O)c1ccccc1Nc1nc(Nc2ccc(N3CCNCC3)cc2OC)ncc1Br` [Example 3-47], the IC50 in test [1] was determined as 1 nM; in test [2] (Mus musculus, 4T1), 60 nM; on FAK it was 100 nM.
Consider `CNS(=O)(=O)c1ccccc1Nc1nc(Nc2cc(OCCN3CCOCC3)ccc2OC)ncc1Cl` [Example 20-21], for which the IC50 is 26 nM in test [1]; 680 nM in test [2] (Mus musculus, 4T1); 3000 nM on FAK.
For `CNC(=O)c1ccccc1Nc1nc(Nc2cc(N3CCOCC3)ccc2OC)ncc1Br` [Example 8-1], in that order: 6.6 nM, 330 nM and 600 nM.
For `CNC(=O)c1ccccc1Nc1nc(Nc2ccc(F)cc2OC)ncc1Br` [Example 8-4], in that order: 8 nM, 1100 nM and above 10000 nM.
For `CCS(=O)(=O)c1ccccc1Nc1nc(Nc2ccc(N3CCOCC3)cc2OC)ncc1Cl` [Example 27-1], in that order: 14 nM, 470 nM and 60 nM.
With `CCS(=O)(=O)c1ccccc1Nc1nc(Nc2ccc(N3CCC(N4CCCCC4)CC3)cc2OC)ncc1Cl` [Example 27-2], the IC50 is 5.1 nM in test [1]; 1100 nM in test [2] (Mus musculus, 4T1); 500 nM on FAK.
In the same order, the values of `CNS(=O)(=O)c1ccccc1Nc1nc(Nc2cc(C)cc(C)c2C)ncc1Br` [Example 3-16] are 48 nM, 3000 nM and 1100 nM.
Regarding `COc1cc(N2CCC(OC)C2)ccc1Nc1ncc(Cl)c(Nc2ccccc2S(=O)(=O)C(C)C)n1` (stereo not drawn) [Example 28-17], the IC50 in test [1] is 15 nM; in test [2] (Mus musculus, 4T1), 1900 nM; against FAK, 160 nM.
For `CNC(=O)c1ccccc1Nc1nc(Nc2ccc(N3CCN(C(C)=O)CC3)cc2OC)ncc1Cl` [Example 7-7], in that order: 4.1 nM, 180 nM and 900 nM.
For the compound `CCOc1ccc(-c2ccccc2)cc1Nc1ncc(Br)c(Nc2ccccc2S(=O)(=O)NC)n1` [Example 3-29], the IC50 in test [1] was 89 nM; in test [2] (Mus musculus, 4T1) it was above 10000 nM; against FAK, 600 nM.
For `CCS(=O)(=O)c1ccccc1Nc1nc(Nc2ccc(N3CCC[C@@H](C(N)=O)C3)cc2OC)ncc1Cl` [Example 27-8], in that order: 9.3 nM, 750 nM and 600 nM.
In the same order, the values of `COc1cc(N2CCN(C(C)=O)CC2)ccc1Nc1ncc(Cl)c(Nc2ccccc2S(=O)(=O)C2CC2)n1` [Example 30-2] are 12 nM, 470 nM and 200 nM.
In the same order, the values of `CNS(=O)(=O)c1ccccc1Nc1nc(Nc2cccc3c2ccn3CCCN2CCOCC2)ncc1Cl` [Example 20-10] are 2 nM, 20 nM and 100 nM.
As for `CCC(CC)NS(=O)(=O)c1ccccc1Nc1nc(Nc2ccc(OCCN3CCOCC3)cc2OC)ncc1Cl` [Example 23-8], the IC50 in test [1] is 6.7 nM; in test [2] (Mus musculus, 4T1), 490 nM; against FAK, 300 nM.
In the case of `CNC(=O)c1cc(F)ccc1Nc1nc(Nc2ccc(N3CCC(N4CCCCC4)CC3)cc2OC)ncc1Cl` [Example 11-2], the IC50 was determined as 4.1 nM in test [1]; 690 nM in test [2] (Mus musculus, 4T1); 800 nM on FAK.
For `COc1cc(N2CCOCC2)ccc1Nc1ncc(Cl)c(Nc2ccccc2S(=O)(=O)N2CCOCC2)n1` [Example 14-7], the IC50 in test [1] came to 7.5 nM; in test [2] (Mus musculus, 4T1), 1400 nM; against FAK, 200 nM.
For `COc1cc(N2CCOCC2)ccc1Nc1ncc(Cl)c(Nc2ccccc2S(=O)(=O)c2ccccc2)n1` [Example 34-6], in that order: 14 nM, 3000 nM and above 10000 nM.
In the same order, the values of `CNC(=O)c1ccccc1Nc1nc(Nc2ccc(N3CCOCC3)cc2OC)ncc1Br` [Example 8-2] are 2.4 nM, 990 nM and 500 nM.
For `CNS(=O)(=O)c1ccccc1Nc1nc(Nc2ccc(OCC3CCN(C)CC3)cc2OC)ncc1Cl` [Example 20-25], in that order: 6.2 nM, 60 nM and 210 nM.
Regarding `CCC(C)NS(=O)(=O)c1ccccc1Nc1nc(Nc2ccc(OCCN3CCOCC3)cc2OC)ncc1Cl` (stereo not drawn) [Example 21-4], the IC50 in test [1] was found to be 1.8 nM; in test [2] (Mus musculus, 4T1), 300 nM; on FAK, 50 nM.
In the case of `CNS(=O)(=O)c1ccccc1Nc1nc(Nc2ccc(OC3CCNCC3)cc2OC)ncc1Br` [Example 3-79], the IC50 in test [1] turned out to be 5 nM; in test [2] (Mus musculus, 4T1) it was 120 nM; against FAK, 1300 nM.
In the same order, the values of `CNS(=O)(=O)c1ccccc1Nc1nc(Nc2cc(OC)ccc2OCCO)ncc1Br` [Example 3-60] are 90 nM, 2000 nM and 930 nM.
For `COc1cc(N2CCC(N3CCNCC3)CC2)ccc1Nc1ncc(Cl)c(Nc2ccccc2S(=O)(=O)C(C)C)n1` [Example 28-25], in that order: 3.9 nM, 130 nM and 40 nM.
For `CNS(=O)(=O)c1ccccc1Nc1nc(Nc2cc(N3CCCCC3)ccc2C)ncc1Br` [Example 3-26], in that order: 50 nM, 2000 nM and 790 nM.

These data come from patent publication US7893074B2, “2, 4-pyrimidinediamines useful in the treatment of neoplastic diseases, inflammatory and immune system disorders” (Novartis AG, priority 2003, dated 2011).
